Laboratory results from patent publication EP4755886A1 (Chengdu Chipscreen Pharmaceutical Ltd., priority 2023, dated 2025).

Tests used:
wild-type HCT-116 cells = assay: Cell proliferation (MTS), wild-type HCT-116; format: cell-based; conditions: Homo sapiens, 240 h; wild-type HCT-116, 10 days with compound, MTS reading; read-out: IC50 HCT116 WT
Method: (§1) MTAP^-/- HCT-116 and wild-type HCT-116 cell strains were cultured in complete medium McCoy's 5A (Gibco, 16600082)/10% FBS (Gibco, 10099141C)/1% p/s (Gibco, 15140122) to evaluate the enhanced inhibitory effect of the compounds against the proliferation selectivity of MTAP^-/- HCT-116 cells. On day 0, MTAP^-/- HCT-116 cells or wild-type HCT-116 cells were added to a 96-well cell culture plate (Corning, 3599) at 100 cells/well, and the plate was incubated in an incubator at 37 °C with 5% CO2. The compound was diluted in a 3-fold gradient with DMSO (Sigma, D5879) (initial concentration: 20 µM, 3-fold dilution, 8 concentration points in total). On day 1, the compound was diluted to multiple concentration points, and the cells were treated separately and incubated in the incubator at 37 °C with 5% CO2 for another 10 days. On Day 11, 20 µL of MTS (CellTiter 96® AQueous One Solution Cell Proliferation Assay) (Promega, G3581) was added to each well. […] In the formula, Y represents the inhibition rate, X represents the logarithm of the compound concentration, Top represents the maximum response (the inhibition rate at the maximum compound concentration), Bottom represents the baseline response (the inhibition rate where the compound concentration was 0), Hill Slope represents the slope of the IC50 curve, and IC50 represents the half maximal inhibitory concentration. Table 1. IC50 (µM)

MTAP^-/- HCT-116 cells = assay: Cell proliferation (MTS), MTAP-/- HCT-116; format: cell-based, human; conditions: for Selectivity: HCT116 WT IC50 relative to HCT116 MTAP-/- IC50; for IC50: Homo sapiens, 240 h, MTAP-/- HCT-116, 10 days with compound, MTS reading, read-out: IC50 HCT116 MTAP-/-
Excerpt: The colon cancer cell strain HCT-116 (purchased from Nanjing Cobioer) was co-transfected with the gene editing tool CRISPR/Cas9 and sgRNA, and the MTAP^-/- HCT-116 cell strain with biallelic inactivation of MTAP was obtained by assays such as Western Blotting and Sanger sequencing. The MTAP^-/- HCT-116 cell strain was used for compound selectivity screening and evaluation based on the synergistic mechanism of MTAP deletion and PRMT5, including a symmetric dimethylarginine (SDMA) level test, a cell proliferation test, and the like.
as §1, with “On” for “MTAP^-/- HCT-116 and wild-type HCT-116 cell strains were cultured in complete medium McCoy's 5A (Gibco, 16600082)/10% FBS (Gibco, 10099141C)/1% p/s (Gibco, 15140122) to evaluate the enhanced inhibitory effect of the compounds against the proliferation selectivity of MTAP^-/- HCT-116 cells. On”, “concentration.” for “concentration. Table 1. IC50 (µM)”

Compound | IC50 (wild-type HCT-116 cells) [nM] | Selectivity (MTAP^-/- HCT-116 cells) | IC50 (MTAP^-/- HCT-116 cells) [nM]
CN(C(=O)c1ccc2nc(N)c3cnn(C)c3c2c1)C1COc2cc(C#Cc3cnn(C)c3)ccc21 (stereo not drawn) [Compound 1, 4-amino-N,1-dimethyl-N-(6-((1-methyl-1H-pyrazol-4-yl)ethynyl)-2,3-dihydrobenzofuran-3-yl)-1H-pyrazolo[4,3-c]quinoline-8-carboxamide] | 1800 | 140 | 12.9
Cc1c(C#Cc2ccc3c(c2)OC[C@H]3N(C)C(=O)c2cc3c(cc2Cl)nc(N)c2cnn(C)c23)cnn1C [Compound 22A, (S)-4-amino-7-chloro-N-(6-((1,5-dimethyl-1H-pyrazol-4-yl)ethynyl)-2,3-dihydrobenzofuran-3-yl)-N,1-dimethyl-1H-pyrazolo[4,3-c]quinoline-8-carboxamide] | 55 | 55 | 1
CCn1cc(C#Cc2ccc3c(c2)OCC3N(C)C(=O)c2ccc3nc(N)c4cnn(C)c4c3c2)cn1 (stereo not drawn) [Compound 20, 4-amino-N-(6-((1-ethyl-1H-pyrazol-4-yl)ethynyl)-2,3-dihydrobenzofuran-3-yl)-N, 1-dimethyl-1H-pyrazolo[4,3-c]quinoline-8-carboxamide] | 948 | 97 | 9.8
Cc1cn(C)nc1C#Cc1ccc2c(c1)OC[C@H]2N(C)C(=O)c1cc2c(cc1Cl)nc(N)c1cnn(C)c12 [Compound 81A, (S)-4-amino-7-chloro-N-(6-((1,4-dimethyl-1H-pyrazol-3-yl)ethynyl)-2,3-dihydrobenzofuran-3-yl)-N,1-dimethyl-1H-pyrazolo[4,3-c]quinoline-8-carboxamide] | 122 | 45 | 2.7
CN(C(=O)c1cc2c(cc1F)nc(N)c1cnn(C)c12)C1COCc2cc(C#Cc3cnn(C)c3)ccc21 (stereo not drawn) [Compound 72, 4-amino-7-fluoro-N,1-dimethyl-N-(7-((1-methyl-1H-pyrazol-4-yl)ethynyl)isochroman-4-yl)-1H-pyrazolo[4,3-c]quinoline-8-carboxamide] |  |  | 6
CN1CCn2c(C#Cc3ccc4c(c3)OCC4N(C)C(=O)c3cc4c(cc3F)nc(N)c3cnn(C)c34)cnc2C1 (stereo not drawn) [Compound 46, 4-amino-7-fluoro-N,1-dimethyl-N-(6-((7-methyl-5,6,7,8-tetrahydroimidazo[1,2-a]pyrazin-3-yl)ethynyl)-2,3-dihydrobenzofuran-3-yl)-1H-pyrazolo[4,3-c]quinoline-8-carboxamide] | 467 | 156 | 3
CN(C(=O)c1cc2c(cc1F)nc(N)c1cnn(C)c12)[C@@H]1COc2cc(C#Cc3cccnc3F)ccc21 [Compound 54A, (S)-4-amino-7-fluoro-N-(6-((2-fluoropyridin-3-yl)ethynyl)-2,3-dihydrobenzofuran-3-yl)-N,1-dimethyl-1H-pyrazolo[4,3-c]quinoline-8-carboxamide] |  |  | 5.5
Cc1ccc(C#Cc2ccc3c(c2)OC[C@H]3N(C)C(=O)c2cc3c(cc2F)nc(N)c2cnn(C)c23)cn1 [Compound 59A, (S)-4-amino-7-fluoro-N,1-dimethyl-N-(6-((6-methylpyridin-3-yl)ethynyl)-2,3-dihydrobenzofuran-3-yl)-1H-pyrazolo[4,3-c]quinoline-8-carboxamide] | 305 | 66 | 4.6
Cc1nn(C)cc1C#Cc1ccc2c(c1)OCC2N(C)C(=O)c1cc2c(cc1F)nc(N)c1cnn(C)c12 (stereo not drawn) [Compound 25, 4-amino-N-(6-((1,3-dimethyl-1H-pyrazol-4-yl)ethynyl)-2,3-dihydrobenzofuran-3-yl)-7-fluoro-N,1-dimethyl-1H-pyrazolo[4,3-c]quinoline-8-carboxamide] | 471 | 100 | 4.7
CN(C(=O)c1cc2c3c(c(N)nc2cc1Cl)COC3)[C@@H]1COc2cc(C#Cc3cnn(C4CCC4)c3)ccc21 [Compound 90A, (S)-4-amino-7-chloro-N-(6-((1-cyclobutyl-1H-pyrazol-4-yl)ethynyl)-2,3-dihydrobenzofuran-3-yl)-N-methyl-1,3-dihydrofuro[3,4-c]quinoline-8-carboxamide] | 1180 | 98 | 12
Cc1ncccc1C#Cc1ccc2c(c1)OC[C@H]2N(C)C(=O)c1cc2c(cc1Cl)nc(N)c1cnn(C)c12 [Compound 64A, (S)-4-amino-7-chloro-N,1-dimethyl-N-(6-((2-methylpyridin-3-yl)ethynyl)-2,3-dihydrobenzofuran-3-yl)-1H-pyrazolo[4,3-c]quinoline-8-carboxamide] |  |  | 3
CCN(C(=O)c1cc2c(cc1Cl)nc(N)c1cnn(C)c12)C1COc2cc(C#Cc3cnn(C)c3)ccc21 (stereo not drawn) [Compound 28, 4-amino-7-chloro-N-ethyl-1-methyl-N-(6-((1-methyl-1H-pyrazol-4-yl)ethynyl)-2,3-dihydrobenzofuran-3-yl)-1H-pyrazolo[4,3-c]quinoline-8-carboxamide] |  |  | 2.3
CC(C)n1cc(C#Cc2ccc3c(c2)OCC3N(C)C(=O)c2cc3c(cc2Cl)nc(N)c2cnn(C)c23)cn1 (stereo not drawn) [Compound 14, 4-amino-7-chloro-N-(6-((1-isopropyl-1H-pyrazol-4-yl)ethynyl)-2,3-dihydrobenzof uran-3-yl)-N,1-dimethyl-1H-pyrazolo[4,3-c]quinoline-8-carboxamide] |  |  | 9
CN(C(=O)c1cc2c(cc1F)nc(N)c1cnn(C)c12)[C@@H]1COc2cc(C#Cc3ccc(C4CC4)nc3)ccc21 [Compound 77A, (S)-4-amino-N-(6-((6-cyclopropylpyridin-3-yl)ethynyl)-2,3-dihyrobenzofuran-3-yl)-7-fluoro-N,1-dimethyl-1H-pyrazolo[4,3-c]quinoline-8-carboxamide] |  |  | 11
CN1CCn2c(C#Cc3ccc4c(c3)OC[C@H]4N(C)C(=O)c3cc4c(cc3Cl)nc(N)c3cnn(C)c34)cnc2C1 [Compound 51A, (S)-4-amino-7-chloro-N,1-dimethyl-N-(6-((7-methyl-5,6,7,8-tetrahydroimidazo[1,2-a]pyrazin-3-yl)ethynyl)-2,3-dihydrobenzofuran-3-yl)-1H-pyrazolo[4,3-c]quinoline-8-carboxamide] |  |  | 1
CCn1cc(C#Cc2ccc3c(c2)OCC3N(C)C(=O)c2cc3c(cc2Cl)nc(N)c2cnn(C)c23)cn1 (stereo not drawn) [Compound 15, 4-amino-7-chloro-N-(6-((1-ethyl-1H-pyrazol-4-yl)ethynyl)-2,3-dihydrobenzofuran-3-yl)-N,1-dimethyl-1H-pyrazolo[4,3-c]quinoline-8-carboxamide] |  |  | 4.8
CN(C(=O)c1cc2c3c(c(N)nc2cc1Cl)COC3)[C@@H]1COc2cc(C#Cc3cnn(C(F)F)c3)ccc21 [Compound 73A, (S)-4-amino-7-chloro-N-(6-((1-(difluoromethyl)-1H-pyrazol-4-yl)ethynyl)-2,3-dihydrobenzofuran-3-yl)-N-methyl-1,3-dihydrofuro[3,4-c]quinoline-8-carboxamide] |  |  | 11
Cc1nn(C)cc1C#Cc1ccc2c(c1)OCC2N(C)C(=O)c1cc2c(cc1Cl)nc(N)c1cnn(C)c12 (stereo not drawn) [Compound 26, 4-amino-7-chloro-N-(6-((1,3-dimethyl-1H-pyrazol-4-yl)ethynyl)-2,3-dihydrobenzofuran-3-yl)-N,1-dimethyl-1H-pyrazolo[4,3-c]quinoline-8-carboxamide] |  |  | 2.8
Cc1nn(C)cc1C#Cc1ccc2c(c1)OC[C@H]2N(C)C(=O)c1cc2c(cc1Cl)nc(N)c1cnn(C)c12 [Compound 26A, (S)-4-amino-7-chloro-N-(6-((1,3-dimethyl-1H-pyrazol-4-yl)ethynyl)-2,3-dihydrobenzofuran-3-yl)-N,1-dimethyl-1H-pyrazolo[4,3-c]quinoline-8-carboxamide] |  |  | 0.9
CN(C(=O)c1cc2c3c(c(N)nc2cc1F)COC3)[C@@H]1COc2cc(C#Cc3cnn(C)c3)ccc21 [Compound 39A, (S)-4-amino-7-fluoro-N-methyl-N-(6-((1-methyl-1H-pyrazol-4-yl)ethynyl)-2,3-dihydrobenzofuran-3-yl)-1,3-dihydrofuro[3,4-c]quinoline-8-carboxamide] |  |  | 11
